Data published in US20150307938A1, “METHOD TO IDENTIFY A NOVEL CLASS OF IMMUNOLOGIC ADJUVANTS” (Lancell, L.L.C., priority 2011, published 2015).

Tested on: skin
Assay: Affymetrix microarray of skin, DBP-4 hr and analogs vs. untreated; gene selection by log-2 fold change, Wilcoxon, Kendall tau (Tables 8, 9)
Assay type: in vivo, mouse
Settings: for Kendall: Kendall tau coefficient
[1] = DBP-4 hr vs. untreated, rank-sum p-value

CCCCOC(=O)c1ccccc1C(=O)OCCCC [DBP, dibutylphthalate]
No: Kendall (2310016C08Rik NM_001190461_at) | Kendall (Atf3 NM_007498_at) | Wilcoxon (Birc3 NM_007464_at, DBP-4 hr vs. untreated) | Kendall (Birc3 NM_007464_at) | Kendall (Casp4 NM_007609_at) | Wilcoxon (Cd44 NM_001039150_at, DBP-4 hr vs. untreated) | Kendall (Cd44 NM_001039150_at) | Wilcoxon (Cd44 NM_001039151_at, DBP-4 hr vs. untreated) | Kendall (Cd44 NM_001039151_at) | Kendall (Cebpd NM_007679_at) | Wilcoxon (Csf2rb NM_007780_at, DBP-4 hr vs. untreated) | Kendall (Cxcl1 NM_008176_at) | Abcc3 (NM_029600_at) Wilcoxon (DBP-4 hr vs. untreated) | Akap12 (NM_031185_at) Wilcoxon (DBP-4 hr vs. untreated) | Bcar3 (NM_013867_at) Wilcoxon (DBP-4 hr vs. untreated) | Bhlhe40 (NM_011498_at) Wilcoxon (DBP-4 hr vs. untreated) | Calcb (NM_054084_at) Wilcoxon (DBP-4 hr vs. untreated) | Clic4 (NM_013885_at) Wilcoxon (DBP-4 hr vs. untreated) | Cytip (NM_139200_at) Wilcoxon (DBP-4 hr vs. untreated) | Dusp7 (NM_153459_at) Wilcoxon (DBP-4 hr vs. untreated) | Ier2 (NM_010499_at) Wilcoxon (DBP-4 hr vs. untreated) | Jdp2 (NM_030887_at) Wilcoxon (DBP-4 hr vs. untreated) | Jun (NM_010591_at) Wilcoxon (DBP-4 hr vs. untreated) | Klrb1b (NM_030599_at) Wilcoxon (DBP-4 hr vs. untreated) | Krt35 (NM_016880_at) Wilcoxon (DBP-4 hr vs. untreated) | Map3k6 (NM_016693_at) Wilcoxon (DBP-4 hr vs. untreated) | Mt1 (NM_013602_at) Wilcoxon (DBP-4 hr vs. untreated) | Nfkbia (NM_010907_at) Wilcoxon (DBP-4 hr vs. untreated) | Otud7a (NM_130880_at) Wilcoxon (DBP-4 hr vs. untreated) | Plaur (NM_011113_at) Wilcoxon (DBP-4 hr vs. untreated) | Plscr1 (NM_011636_at) Wilcoxon (DBP-4 hr vs. untreated) | Ptges (NM_022415_at) Wilcoxon (DBP-4 hr vs. untreated) | Ramp3 (NM_019511_at) Wilcoxon (DBP-4 hr vs. untreated) | Rnf19b (NM_029219_at) Wilcoxon (DBP-4 hr vs. untreated) | Slc10a6 (NM_029415_at) Wilcoxon (DBP-4 hr vs. untreated) | Slc15a3 (NM_023044_at) Wilcoxon (DBP-4 hr vs. untreated) | Slc25a25 (NM_146118_at) Wilcoxon (DBP-4 hr vs. untreated) | Uap1 (NM_133806_at) Wilcoxon (DBP-4 hr vs. untreated) | Zfp593 (NM_024215_at) Wilcoxon (DBP-4 hr vs. untreated) | 2510002D24Rik NM_001033164_at Wilcoxon [1] | 2510009E07Rik NM_001001881_at Wilcoxon [1] | Aldh7a1 NM_001127338_at Wilcoxon [1] | Atp2a2 NM_001110140_at Wilcoxon [1] | Atp13a3 NM_001128094_at Wilcoxon [1] | Atp13a3 NM_001128096_at Wilcoxon [1] | Bcr NM_001081412_at Wilcoxon [1] | Camk2g NM_001039138_at Wilcoxon [1] | Camk2g NM_001039139_at Wilcoxon [1] | Cyth1 NM_001112699_at Wilcoxon [1] | Cyth1 NM_001112700_at Wilcoxon [1] | Deptor NM_001037937_at Wilcoxon [1] | Dlgap4 NM_001042487_at Wilcoxon [1] | Dlgap4 NM_001042488_at Wilcoxon [1] | Fam134b NM_001034851_at Wilcoxon [1] | Gcdh NM_001044744_at Wilcoxon [1]
Yes: Wilcoxon (2310016C08Rik NM_001190461_at, DBP-4 hr vs. untreated) | Wilcoxon (Adam8 NM_007403_at, DBP-4 hr vs. untreated) | Kendall (Adam8 NM_007403_at) | Wilcoxon (Atf3 NM_007498_at, DBP-4 hr vs. untreated) | Wilcoxon (Btg2 NM_007570_at, DBP-4 hr vs. untreated) | Kendall (Btg2 NM_007570_at) | Wilcoxon (Casp4 NM_007609_at, DBP-4 hr vs. untreated) | Wilcoxon (Cebpd NM_007679_at, DBP-4 hr vs. untreated) | Kendall (Csf2rb NM_007780_at) | Wilcoxon (Cxcl1 NM_008176_at, DBP-4 hr vs. untreated) | 1600029D21Rik (NM_029639_at) Wilcoxon (DBP-4 hr vs. untreated) | 2010002N04Rik (NM_134133_at) Wilcoxon (DBP-4 hr vs. untreated) | 2310016C08Rik (NM_023516_at) Wilcoxon (DBP-4 hr vs. untreated) | 1810011010Rik (NM_026931_at) Wilcoxon (DBP-4 hr vs. untreated) | Acot5 (NM_145444_at) Wilcoxon (DBP-4 hr vs. untreated) | Adamts4 (NM_172845_at) Wilcoxon (DBP-4 hr vs. untreated) | Angptl4 (NM_020581_at) Wilcoxon (DBP-4 hr vs. untreated) | Arc (NM_018790_at) Wilcoxon (DBP-4 hr vs. untreated) | Arid5a (NM_145996_at) Wilcoxon (DBP-4 hr vs. untreated) | Arid5a (NR_033310_at) Wilcoxon (DBP-4 hr vs. untreated) | Bcl3 (NM_033601_at) Wilcoxon (DBP-4 hr vs. untreated) | Ccl1 (NM_011329_at) Wilcoxon (DBP-4 hr vs. untreated) | Ccl2 (NM_011333_at) Wilcoxon (DBP-4 hr vs. untreated) | Ccl3 (NM_011337_at) Wilcoxon (DBP-4 hr vs. untreated) | Ccl7 (NM_013654_at) Wilcoxon (DBP-4 hr vs. untreated) | Ccl9 (NM_011338_at) Wilcoxon (DBP-4 hr vs. untreated) | Ccl12 (NM_011331_at) Wilcoxon (DBP-4 hr vs. untreated) | Ccl17 (NM_011332_at) Wilcoxon (DBP-4 hr vs. untreated) | Ccl20 (NM_016960_at) Wilcoxon (DBP-4 hr vs. untreated) | Cd86 (NM_019388_at) Wilcoxon (DBP-4 hr vs. untreated) | Cd207 (NM_144943_at) Wilcoxon (DBP-4 hr vs. untreated) | Clec4e (NM_019948_at) Wilcoxon (DBP-4 hr vs. untreated) | Clec7a (NM_020008_at) Wilcoxon (DBP-4 hr vs. untreated) | Clec4d (NM_010819_at) Wilcoxon (DBP-4 hr vs. untreated) | Crem (NM_013498_at) Wilcoxon (DBP-4 hr vs. untreated) | Cxcl16 (NM_023158_at) Wilcoxon (DBP-4 hr vs. untreated) | Cyr61 (NM_010516_at) Wilcoxon (DBP-4 hr vs. untreated) | Dusp6 (NM_026268_at) Wilcoxon (DBP-4 hr vs. untreated) | Epgn (NM_053087_at) Wilcoxon (DBP-4 hr vs. untreated) | Gzmb (NM_013542_at) Wilcoxon (DBP-4 hr vs. untreated) | Havcr2 (NM_134250_at) Wilcoxon (DBP-4 hr vs. untreated) | Ier3 (NM_133662_at) Wilcoxon (DBP-4 hr vs. untreated) | Ifi202b (NM_011940_at) Wilcoxon (DBP-4 hr vs. untreated) | Il1f6 (NM_019450_at) Wilcoxon (DBP-4 hr vs. untreated) | Il6 (NM_031168_at) Wilcoxon (DBP-4 hr vs. untreated) | Il20 (NM_021380_at) Wilcoxon (DBP-4 hr vs. untreated) | Klk6 (NM_011177_at) Wilcoxon (DBP-4 hr vs. untreated) | Krt25 (NM_133730_at) Wilcoxon (DBP-4 hr vs. untreated) | Krt27 (NM_010666_at) Wilcoxon (DBP-4 hr vs. untreated) | Krt71 (NM_019956_at) Wilcoxon (DBP-4 hr vs. untreated) | Krtap4-16 (NM_001013823_at) Wilcoxon (DBP-4 hr vs. untreated) | LOC100044068 (XM_001473873_at) Wilcoxon (DBP-4 hr vs. untreated) | LOC100504977 (XM_003085794_at) Wilcoxon (DBP-4 hr vs. untreated) | Maff (NM_010755_at) Wilcoxon (DBP-4 hr vs. untreated) | Mcoln2 (NM_026656_at) Wilcoxon (DBP-4 hr vs. untreated) | NA (AFFX-18SRNAMur/X00686_3_at) Wilcoxon (DBP-4 hr vs. untreated) | NA (AFFX-18SRNAMur/X00686_5_at) Wilcoxon (DBP-4 hr vs. untreated) | NA (AFFX-18SRNAMur/X00686_M_at) Wilcoxon (DBP-4 hr vs. untreated) | NA (AFFX-BioB-3_at) Wilcoxon (DBP-4 hr vs. untreated) | NA (AFFX-BioB-5_at) Wilcoxon (DBP-4 hr vs. untreated) | NA (AFFX-BioB-M_at) Wilcoxon (DBP-4 hr vs. untreated) | NA (AFFX-BioC-3_at) Wilcoxon (DBP-4 hr vs. untreated) | NA (AFFX-BioC-5_at) Wilcoxon (DBP-4 hr vs. untreated) | NA (AFFX-BioDn-3_at) Wilcoxon (DBP-4 hr vs. untreated) | NA (AFFX-BioDn-5_at) Wilcoxon (DBP-4 hr vs. untreated) | NA (AFFX-ThrX-5_at) Wilcoxon (DBP-4 hr vs. untreated) | Nfil3 (NM_017373_at) Wilcoxon (DBP-4 hr vs. untreated) | Nfkbiz (NM_030612_at) Wilcoxon (DBP-4 hr vs. untreated) | Nr4a2 (NM_013613_at) Wilcoxon (DBP-4 hr vs. untreated) | Pde4b (NM_019840_at) Wilcoxon (DBP-4 hr vs. untreated) | Pdk4 (NM_013743_at) Wilcoxon (DBP-4 hr vs. untreated) | Plek (NM_019549_at) Wilcoxon (DBP-4 hr vs. untreated) | Pmaip1 (NM_021451_at) Wilcoxon (DBP-4 hr vs. untreated) | Prss22 (NM_133731_at) Wilcoxon (DBP-4 hr vs. untreated) | Pyy (NM_145435_at) Wilcoxon (DBP-4 hr vs. untreated) | Rab20 (NM_011227_at) Wilcoxon (DBP-4 hr vs. untreated) | Rgs1 (NM_015811_at) Wilcoxon (DBP-4 hr vs. untreated) | Saa3 (NM_011315_at) Wilcoxon (DBP-4 hr vs. untreated) | Slc5a1 (NM_019810_at) Wilcoxon (DBP-4 hr vs. untreated) | Slc7a5 (NM_011404_at) Wilcoxon (DBP-4 hr vs. untreated) | Slc34a2 (NM_011402_at) Wilcoxon (DBP-4 hr vs. untreated) | Slc39a8 (NM_026228_at) Wilcoxon (DBP-4 hr vs. untreated) | Slfn2 (NM_011408_at) Wilcoxon (DBP-4 hr vs. untreated) | Slfn4 (NM_011410_at) Wilcoxon (DBP-4 hr vs. untreated) | Slpi (NM_011414_at) Wilcoxon (DBP-4 hr vs. untreated) | Smox (NM_145533_at) Wilcoxon (DBP-4 hr vs. untreated) | Stfa3 (NM_025288_at) Wilcoxon (DBP-4 hr vs. untreated) | Timp1 (NM_011593_at) Wilcoxon (DBP-4 hr vs. untreated) | Tlr2 (NM_011905_at) Wilcoxon (DBP-4 hr vs. untreated) | Tnf (NM_013693_at) Wilcoxon (DBP-4 hr vs. untreated) | Tnfrsf12a (NM_013749_at) Wilcoxon (DBP-4 hr vs. untreated) | Tslp (NM_021367_at) Wilcoxon (DBP-4 hr vs. untreated) | Tslp (NR_033206_at) Wilcoxon (DBP-4 hr vs. untreated) | Tubb6 (NM_026473_at) Wilcoxon (DBP-4 hr vs. untreated) | Zc3h12a (NM_153159_at) Wilcoxon (DBP-4 hr vs. untreated) | Zfp36 (NM_011756_at) Wilcoxon (DBP-4 hr vs. untreated) | 1110032A04Rik NM_133675_at Wilcoxon [1] | 2610528A11Rik XR_105647_at Wilcoxon [1] | 1500015010Rik NM_024283_at Wilcoxon [1] | 3110079015Rik NM_028473_at Wilcoxon [1] | A2m NM_175628_at Wilcoxon [1] | AY026312 NM_133359_at Wilcoxon [1] | Actn2 NM_033268_at Wilcoxon [1] | Akr1c14 NM_134072_at Wilcoxon [1] | Aox4 NM_023631_at Wilcoxon [1] | Asb5 NM_029569_at Wilcoxon [1] | Ccl8 NM_021443_at Wilcoxon [1] | Ccl24 NM_019577_at Wilcoxon [1] | Cd209d NM_130904_at Wilcoxon [1] | Ckmt2 NM_198415_at Wilcoxon [1] | Cldn8 NM_018778_at Wilcoxon [1] | Clec4n NM_020001_at Wilcoxon [1] | Cmya5 NM_023821_at Wilcoxon [1] | Comp NM_016685_at Wilcoxon [1] | Corin NM_016869_at Wilcoxon [1] | Crispld1 NM_031402_at Wilcoxon [1] | Cxcl10 NM_021274_at Wilcoxon [1] | Cxcr6 NM_030712_at Wilcoxon [1] | Dbp NM_016974_at Wilcoxon [1] | Ear5 NM_019398_at Wilcoxon [1] | Gm10228 XM_001474297_at Wilcoxon [1] | Gm10228 XM_003086004_at Wilcoxon [1]
